In ChEMBL document CHEMBL6103653, “Alstolarsines A-E, Indoline Alkaloids with Two Different Carbon Skeletons from Alstonia scholaris” (J Nat Prod, 2025):

Columns and labels:
[1] = organism: Homo sapiens; assay: Inhibition of DRAK2 autophosphorylation (unknown origin) at 20 microg/ml by ADP-Glo assay relative to control; details: dose 20.0 µg/ml
[2] = molecular target: T1, ATP-citrate synthase (Homo sapiens) (UniProt P53396); assay: Inhibition of ATP citrate lyase (unknown origin) at 20 microg/ml by ADP-Glo assay relative to control; details: dose 20.0 µg/ml
T1 sequence (whole entry): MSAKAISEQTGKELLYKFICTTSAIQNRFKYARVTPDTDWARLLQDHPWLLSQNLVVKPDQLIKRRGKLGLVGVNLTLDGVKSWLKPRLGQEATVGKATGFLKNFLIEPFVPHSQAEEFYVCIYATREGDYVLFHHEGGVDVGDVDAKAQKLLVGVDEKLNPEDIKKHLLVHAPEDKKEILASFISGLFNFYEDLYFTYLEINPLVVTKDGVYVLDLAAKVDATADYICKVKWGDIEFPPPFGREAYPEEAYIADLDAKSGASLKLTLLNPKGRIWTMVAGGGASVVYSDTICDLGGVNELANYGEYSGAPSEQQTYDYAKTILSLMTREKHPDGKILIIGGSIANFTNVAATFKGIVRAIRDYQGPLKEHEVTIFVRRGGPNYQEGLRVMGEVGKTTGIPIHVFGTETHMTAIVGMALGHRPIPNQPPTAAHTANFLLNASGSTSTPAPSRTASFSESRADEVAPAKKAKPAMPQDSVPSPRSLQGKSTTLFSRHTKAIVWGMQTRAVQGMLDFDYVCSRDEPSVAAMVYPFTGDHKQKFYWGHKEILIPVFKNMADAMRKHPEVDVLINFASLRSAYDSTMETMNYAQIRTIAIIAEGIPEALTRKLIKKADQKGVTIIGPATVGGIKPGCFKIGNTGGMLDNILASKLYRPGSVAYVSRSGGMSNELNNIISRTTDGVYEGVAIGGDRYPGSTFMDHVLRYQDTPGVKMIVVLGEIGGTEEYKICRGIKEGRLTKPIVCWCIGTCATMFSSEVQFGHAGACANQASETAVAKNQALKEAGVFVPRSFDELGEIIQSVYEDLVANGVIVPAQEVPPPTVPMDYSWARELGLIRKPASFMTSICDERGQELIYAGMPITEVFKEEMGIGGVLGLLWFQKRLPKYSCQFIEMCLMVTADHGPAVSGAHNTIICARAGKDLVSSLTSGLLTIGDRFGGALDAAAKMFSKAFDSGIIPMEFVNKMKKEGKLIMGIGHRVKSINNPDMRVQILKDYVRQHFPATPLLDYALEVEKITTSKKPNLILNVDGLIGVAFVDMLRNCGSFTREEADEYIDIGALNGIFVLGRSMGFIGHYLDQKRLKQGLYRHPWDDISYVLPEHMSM

Structure (SMILES)	inhibition [1]	inhibition [2]
C/C=C1/C[N@@+]2(C)CC[C@@]34c5ccccc5N[C@]32C(=O)[C@@H]2COC[C@@]4(C(=O)[O-])[C@H]12	47.7%	49.2%
C/C=C1/C[N@@+]2(C)CC[C@@]34c5ccccc5N[C@]32C(=O)[C@H]2[C@@H]1[C@]4(C(=O)[O-])CO[C@@H]2C	49.2%	17%
C/C=C1/C[N@@+]2(C)CC[C@@]34c5ccccc5N[C@]32C(=O)[C@@H]2[C@H](C)OC[C@@]4(C(=O)[O-])[C@H]12	16.5%	5.1%
C/C=C1/C[N@@+]2(C)CC[C@@]34c5ccccc5N[C@]32C(=O)[C@]2(C)OC[C@@]4(C(=O)[O-])[C@H]12	4.5%	5.5%
